According to paper PMC10786919, “Design-rules for stapled peptides with in vivo activity and their application to Mdm2/X antagonists” (Nature Communications, 2024):
Converted amounts (≈) assume the structure as drawn. Positions of bridges follow the written chain, without caps; N, C: chain ends. Non-standard residues stand in square brackets, D forms with d. Residues, ends and D or L forms follow the SMILES beside them. Lys(N3) = [N-]=[N+]=NCCCC[C@H](N)C(=O)O; R8 = C=CCCCCCC[C@@](C)(N)C(=O)O; Cba = N[C@@H](CC1CCC1)C(=O)O; S5 = C=CCCC[C@](C)(N)C(=O)O; βAla = NCCC(=O)O

Columns and labels:
[1] = tested on: p53 responsive β-lactamase reporter in HCT116 cells; assay: cells; format: cell-based; details: 0% FBS 4Hr; read-out: p53 reporter assay: EC50
Summary of the method: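 HCT116 cells stably carrying a p53-responsive β-lactamase reporter, seeded at 8000 cells/well, with 0.5% DMSO final. Reporter activity read by ToxBLAzer Dual Screen. Values are geometric means of at least three biological replicates.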

[2] = Solubility assay (kinetic solubility, PBS pH 7); format: physicochemical; details: pH 7, aqueous buffer, kinetic from dmso stock, pH 7, PBS; read-out: Solubility
Summary of the method: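 Reference standards were made by diluting the 10 mM stock to 100 µM in acetonitrile:methanol:DMSO 10:80:10. Solubility in µM was calculated as the sample peak area divided by the standard peak area, multiplied by the standard concentration.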

[3] = tested on: Jump-In T-REx CHO-K1 BLA cells; assay: cells; format: cell-based; details: 0% FBS 4Hr
human Mdm2 1–125 = biological target: T1, human Mdm2 1–125 (Homo sapiens, UniProt Q00987); assay: Mdm2 binding by competitive fluorescence anisotropy assay (FP binding); details: Binding KD
T1 construct: GST (N); His6 (internal); TEV cleavage site (ENLYFQG) (internal); made in house; host or cells: BL21 (DE3) Rosetta T1R Escherichia coli
T1 sequence (Q00987 with tags, fused parts or gaps): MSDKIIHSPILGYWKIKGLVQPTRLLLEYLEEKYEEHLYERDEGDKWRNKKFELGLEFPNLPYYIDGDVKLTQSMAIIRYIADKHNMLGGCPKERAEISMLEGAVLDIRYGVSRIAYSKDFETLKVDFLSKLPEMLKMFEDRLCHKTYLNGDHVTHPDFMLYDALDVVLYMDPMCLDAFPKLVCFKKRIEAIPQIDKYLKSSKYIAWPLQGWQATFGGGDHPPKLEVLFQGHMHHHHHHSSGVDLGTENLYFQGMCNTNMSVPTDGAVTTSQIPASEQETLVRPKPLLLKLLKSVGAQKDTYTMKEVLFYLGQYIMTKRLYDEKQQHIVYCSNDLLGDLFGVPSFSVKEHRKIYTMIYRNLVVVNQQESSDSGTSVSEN

Ca Ski cell line = details: read-out: Cell Proliferation assay EC50; p53 Mut, Ca-Ski
Summary of the method: (§1)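 Compound dilution series (10 points, 3-fold, 10 mM top stock in DMSO) tested on overnight-plated Ca Ski cells in RPMI1640/10% FBS and on blasticidin-selected p53RE-bla HCT-116 cells in McCoy's 5A; read-out was CellTiter-Glo 2.0 luminescence after room-temperature equilibration.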

[4] = tested on: CellSensor p53RE-bla HCT-116 Cell Line; details: read-out: Cell Proliferation assay EC50; p53 WT, HCT116
Summary of the method: as §1

Compound: CC(=O)N[C@@H](CCCCN=[N+]=[N-])C(=O)NCCC(=O)N[C@@H](CC(N)=O)C(=O)N[C@H](C(=O)N[C@@H](Cc1ccccc1)C(=O)N[C@]1(C)CCCCCCC=CCCC[C@@](C)(C(=O)N[C@@H](CC(N)=O)C(=O)N[C@@H](CC(N)=O)C(=O)N[C@@H](CC(N)=O)C(N)=O)NC(=O)[C@H](CC2CCC2)NC(=O)[C@H](CCC(N)=O)NC(=O)[C@H](CC(N)=O)NC(=O)[C@H](Cc2c[nH]c3ccccc23)NC(=O)[C@H](Cc2ccc(O)cc2)NC(=O)[C@H](CC(N)=O)NC1=O)[C@@H](C)O [MP-359, azide-ATSP-7041 (L1N, E5N, A8N, S12N, A13N, A14N)] (Ac-[Lys(N3)][βAla]NTF[R8]NYWNQ[Cba][S5]NNN-NH2; staple 6-13)
- EC50 [1]: 32.2 µM
- solubility kinetic [2]: 53.7 µM (≈ 113 µg/mL)
- TETCHO: Counterscreen % Effect [3]: 8.184%
- EC50 ([3]; read-out: TETCHO: Counterscreen EC50): > 50.6 µM
- Kd (human Mdm2 1–125): 0.015 µM
- EC50 (Ca Ski cell line): > 49.8 µM
- EC50 [4]: 27.1 µM
